In PubChem BioAssay AID548 (The Scripps Research Institute Molecular Screening Center, 2006):
Calls of active or inactive are those of the source. The rule behind the calls is not given here.

Target: cAMP-dependent protein kinase catalytic subunit alpha (Homo sapiens) (UniProt P17612)
Assay: PubChem AID 548
Details: Purified PKA, Kemptide, Kinase-Glo ATP luminescence

SMILES | IC50
Nc1c(S(=O)(=O)c2cccc(Cl)c2)c2nc3ccccc3nc2n1/N=C/c1ccc(O)c(O)c1 | > 59.6 µM (inactive)
O/N=C/c1c[nH]c2ccccc12 | 34.4 µM
